Test results from patent US8470878B2, “Heterocyclic sulfonamide derivatives” (Novartis AG, priority 2011, dated 2013).

Legend:
BRAF-MEK-ERK cascade = target: T1, BRAF-MEK-ERK cascade (Homo sapiens, UniProt Q02750); test: BRAF-MEK-ERK enzymatic cascade assay (TR-FRET); assay type: biochemical; details: mean±SEM, n=3; 10 point dose response, 45 minutes pre-incubation
T1 construct: human full length MEK1 kinase (Cat No. 14-706); purchased Upstate 14-557 (BRAF V599E); 14-706 (MEK1); 14-536 (ERK2)
Description: A BRAF-MEK-ERK cascade assay is used to evaluate the effects of these compounds as inhibitors of the MAP kinase pathway. An enzymatic cascade assay is set up using recombinant human activated BRAF (V599E) kinase (Cat No. 14-557), human full length MEK1 kinase (Cat No. 14-706) and human full length active MAP Kinase 2/ERK2 (Cat No. 14-536) enzymes procured from Upstate. TR-FRET (Time resolved fluorescence resonance energy transfer) detection technology is used for the read out. […] The kinase reaction is stopped after 90 minutes with 10 mM EDTA and Lance detection mix (2 nM Eu-labeled phospho-serine/threonine antibody (Cat. No. AD0176-Perkin Elmer), 20 nM SA-APC (Cat No. CR130-100-Perkin Elmer) is added. The TR-FRET signal (Excitation at 340 nm, Emission at 615 nm and 665 nm) is read with 50 μs delay time on a Victor3 V fluorimeter. The data is calculated using the ratio of readings at 665 nm to 615 nm. The final concentration of DMSO is 2.5% in the assay. Compounds are screened at 10 μM concentration with pre-incubation of the enzymes in the presence of test compound for 45 minutes.
Each individual IC50 is determined using a 10 point dose response curve generated by GraphPad Prism software Version 4 (San Diego, Calif., USA) using non linear regression curve fit for sigmoidal dose response (variable slope).
These assays described above are fully detailed in Han, Shulin, et. al., Bioorganic & Medicinal Chemistry Letters (2005) 15, 5467-5473, and in Yeh, et. al., Clin Cancer Res (2007) 13 (5), 1576-1583.

[1] = Pharmacokinetics in athymic nude rats; assay type: in vivo; details: rat; for AUC / clearance / half-life / Vd / bioavailability / Cmax: athymic nude, plasma; for bioavailability: p.o. (3 mg/kg) vs i.v. (0.5 mg/kg), oral bioavailability; for PK-parameters compared to Example 1: one-way analysis of variance
Procedure: Pharmacokinetics in Athymic Nude Rats
For pharmacokinetics studies, the following parameters were calculated by non-compartmental regression analysis using Winnonlin 5.0 software (Pharsight, Mountain View, Calif., USA): half life in plasma (t1/2term); plasma clearance (CL); plasma maximum concentration (Cmax); plasma area-under-the-concentration-time-curve (AUC); and percent oral bioavailability (F %).

[2] = tested on: DUSP6 expression in A375 tumors; test: A375 B-RafV600E human melanoma model in rat, PK-PD experiment (DUSP6 expression in tumor, real time quantitative PCR); assay type: in vivo; details: A375 tumor bearing rats, single oral dose, at 12 h and 24 h post dosing; two-way analysis of variance, p=0.003 and p=0.006
Procedure: A375 B-RafV600E Human Melanoma Model in Rat—PK-PD Experiment:
A375 cells were thawed using a 37° C. water bath. Cells were transferred to a tube containing 10 mls of warm DMEM medium. The tube was centrifuged for 5 minutes at 1200 rpm and the supernatant was discarded. The cell pellet was re-suspended and transferred to a 75 cm^2 tissue culture flask containing 15 mls of medium and cultured at 37° C. in a 5% CO2 incubator.
On the day of the cells implantation, cells were harvested (about 85% confluent), and re-suspended in cold medium containing 4 mg/ml of matrigel. This cell suspension was injected, subcutaneously, to athymic-nude pre-irradiated (500 rads) rats. Ten million cells (injection volume, 200 μL) were injected, subcutaneously, into the right flank region of the rats 24 hours after irradiation. Tumor bearing rats were randomized when the tumor volume reached approximately 500 mm^3 after about 15 to 20 days. Three rats were used for each time point.
Rats were treated orally with a single dose of 10, 30 and 60 mg/kg p.o. of Example 1A and 30 mg/kg of Example 1B. […] The mRNA expression levels of two direct target genes of MEK substrate P-Erk (DUSP6 and SPRY4) and an indirect target (BMF) can be measured. […] The tumor samples were pulverized, extracted and studied for expression of the […] DUSP6 using a real time quantitative PCR.

SMILES	IC50 (BRAF-MEK-ERK cascade) [nM]	AUC ([1]; iv, i.v. (0.5 mg/kg)) [µg·h/mL]	clearance ([1]; iv, i.v. (0.5 mg/kg)) [mL/h/kg]	half-life ([1]; iv, i.v. (0.5 mg/kg)) [h]	Vd ([1]; iv, i.v. (0.5 mg/kg)) [L/kg]	bioavailability [1] [%]	AUC ([1]; po, p.o. (3 mg/kg)) [µg·h/mL]	Cmax ([1]; po, p.o. (3 mg/kg)) [ng/mL]	PK-parameters compared to Example 1 [1]	lowering levels of DUSP-6 in tumor [2]
O=S(=O)(Nc1c(Nc2ccc(I)cc2F)c(F)c(F)c2ccoc12)C1(CC(O)CO)CC1 (racemic) [Example 1, 1-(2,3-Dihydroxy-propyl)-cyclopropanesulfonic acid [4,5-difluoro-6-(2-fluoro-4-iodo-phenylamino)-benzofuran-7-yl]amide]	2.1 ± 0.58	70 ± 9	7.6	15.6 ± 1.7	0.17 ± 0.006	87	365 ± 45	9800 ± 700	–	–
O=S(=O)(Nc1c(Nc2ccc(I)cc2F)c(F)c(F)c2ccoc12)C1(C[C@H](O)CO)CC1 [Example 1A, (S)—N-(4,5-difluoro-6-((2-fluoro-4-iodophenyl)amino)benzofuran-7-yl)-1-(2,3-dihydroxypropyl)cyclopropane-1-sulfonamide]	2 ± 0.25	126 ± 3	4	19.9 ± 0.8	0.11 ± 0.006	132	994 ± 30	25600 ± 700	improved PK-parameters compared to Example 1	significantly more effective than Example-1B
O=S(=O)(Nc1c(Nc2ccc(I)cc2F)c(F)c(F)c2ccoc12)C1(C[C@@H](O)CO)CC1 [Example 1B, (R)—N-(4,5-difluoro-6-((2-fluoro-4-iodophenyl)amino)benzofuran-7-yl)-1-(2,3-dihydroxypropyl)cyclopropane-1-sulfonamide]	1.6 ± 0.1	100 ± 14	5.2	17.1 ± 1.8	0.125 ± 0.006	126	752 ± 84	25200 ± 2700	improved PK-parameters compared to Example 1	–
